Each structure is given as a SMILES string.

For the assay, the system named is HUVEC cells. Description: Human Umbilical Vein Endothelial Cell (HUVEC) proliferation assay (BrdU incorporation). Type of assay: cell-based. The conditions noted are these: growth stimulated with VEGF, 72 hrs, read-out: Inhibition of HUVEC proliferation IC50. On the procedure: Human Umbilical Vein Endothelial Cell (HUVEC) Proliferation Assay (BrdU Incorporation) Materials
HUVEC cells and EGM-MV (Endothelial cell growth medium—microvascular) were purchased from Clonetics (San Diego, Calif.). VEGF and bFGF were purchased from R&D Systems (Minneapolis, Minn.). Anti-BrdU antibody was obtained from Chemicon International (Temecula, Calif.).
HUVECs were routinely maintained in EGM-MV medium and were used within passage 7. HUVECs were plated at a density of 2500 cells/well in M199 medium containing 5% FBS (Hyclone) in type I collagen coated plate (Becton Dickinson). The plate was incubated at 37° C. overnight. The medium was removed by aspiration, and test compounds were added to each well in a volume of 0.1 ml/well in serum-free M199 medium. Compound concentrations ranged from 1.5 nM to 30 micromolar. The plate was incubated for 30 min at 37° C. Another 0.1 ml of serum-free M199 medium containing BSA and VEGF (or bFGF) was added to give a final concentration of 0.1% BSA and 10 ng/ml VEGF (0.3 ng/ml bFGF). The plate was incubated at 37° C. for 72 hrs. BrdU was added to each well after the first 48 hrs to give a concentration of 10 micromolar. The colorimetric ELISA assay was performed according to manufacturer's (Roche Molecular Sciences) instructions, with detection by absorbance reading at 450 nm. Results were plotted as concentration of test compound vs. absorbance to give an IC50 value for inhibition of BrdU incorporation.
A general note: Dividing cells build labelled thymidine or BrdU into new DNA.
Consider `CCS(=O)(=O)c1ccc(OC)c(Nc2ncc(-c3cccc(OCc4cccc(OC)c4OC)c3)o2)c1` [Example 165, 5-{3-[(2,3-dimethoxybenzyl)oxy]phenyl}-N-[5-(ethylsulfonyl)-2-methoxyphenyl]-1,3-oxazol-2-amine], for which the IC50 is less than 1000 nM.
Turning to `CCS(=O)(=O)c1ccc(OC)c(Nc2ncc(-c3cccc(OC(C)c4ccncc4)c3)o2)c1` (centres unmarked) [Example 166, N-[5-(ethylsulfonyl)-2-methoxyphenyl]-5-[3-(1-pyridin-4-ylethoxy)phenyl]-1,3-oxazol-2-amine], the IC50 was less than 1000 nM.
On to `CCS(=O)(=O)c1ccc(OC)c(Nc2ncc(-c3cccc(OC4CCOC4)c3)o2)c1` (centres unmarked) [Example 167, N-[5-(ethylsulfonyl)-2-methoxyphenyl]-5-[3-(tetrahydrofuran-3-yloxy)phenyl]-1,3-oxazol-2-amine], for which the IC50 was less than 1000 nM.
Take `CCS(=O)(=O)c1ccc(OC)c(Nc2ncc(-c3cccc(-c4cccs4)c3)o2)c1` [Example 172, N-[5-(ethylsulfonyl)-2-methoxyphenyl]-5-(3-thien-2-ylphenyl)-1,3-oxazol-2-amine]: the IC50 was less than 500 nM.
For the compound `CCS(=O)(=O)c1ccc(OC)c(Nc2ncc(-c3cccc(-c4ccsc4)c3)o2)c1` [Example 173, N-[5-(ethylsulfonyl)-2-methoxyphenyl]-5-(3-thien-3-ylphenyl)-1,3-oxazol-2-amine], the IC50 is less than 500 nM.
Then `CCS(=O)(=O)c1ccc(OC)c(Nc2ncc(-c3cccc(-c4cccnc4)c3)o2)c1` [Example 174, N-[5-(ethylsulfonyl)-2-methoxyphenyl]-5-(3-pyridin-3-ylphenyl)-1,3-oxazol-2-amine], with less than 1000 nM; and `C=Cc1cccc(-c2cnc(Nc3cc(S(=O)(=O)CC)ccc3OC)o2)c1` [Example 175, N-[5-(ethylsulfonyl)-2-methoxyphenyl]-5-(3-vinylphenyl)-1,3-oxazol-2-amine], with less than 1000 nM.
For the compound `CCS(=O)(=O)c1ccc(OC)c(Nc2ncc(-c3cccc(-c4ccccn4)c3)o2)c1` [Example 178, N-[5-(ethylsulfonyl)-2-methoxyphenyl]-5-(3-pyridin-2-ylphenyl)-1,3-oxazol-2-amine], the IC50 was less than 500 nM.
Then `CCS(=O)(=O)c1ccc(OC)c(Nc2ncc(-c3cccc(-c4cncn4C)c3)o2)c1` [Example 179, N-[5-(ethylsulfonyl)-2-methoxyphenyl]-5-[3-(1-methyl-1H-imidazol-5-yl)phenyl]-1,3-oxazol-2-amine], with less than 500 nM; and `CCS(=O)(=O)c1ccc(OC)c(Nc2ncc(-c3cccc(-c4ccccc4)c3)o2)c1` [Example 180, 5-(1,1′-biphenyl-3-yl)-N-[5-(ethylsulfonyl)-2-methoxyphenyl]-1,3-oxazol-2-amine], with less than 500 nM.
The same measure for `CCS(=O)(=O)c1ccc(OC)c(Nc2ncc(-c3cccc(-c4ccco4)c3)o2)c1` [Example 181, N-[5-(ethylsulfonyl)-2-methoxyphenyl]-5-[3-(2-furyl)phenyl]-1,3-oxazol-2-amine]: less than 500 nM.
On to `CCS(=O)(=O)c1ccc(OC)c(Nc2ncc(-c3cccc(-c4ccc(F)cc4)c3)o2)c1` [Example 183, N-[5-(ethylsulfonyl)-2-methoxyphenyl]-5-(4′-fluoro-1,1′-biphenyl-3-yl)-1,3-oxazol-2-amine], for which the IC50 was less than 500 nM.
Then `CCS(=O)(=O)c1ccc(OC)c(Nc2ncc(-c3cccc(-c4ccc5c(c4)CCO5)c3)o2)c1` [Example 184, 5-[3-(2,3-dihydro-1-benzofuran-5-yl)phenyl]-N-[5-(ethylsulfonyl)-2-methoxyphenyl]-1,3-oxazol-2-amine], with less than 500 nM; and `COc1ccc(S(N)(=O)=O)cc1Nc1ncc(-c2cccc(-c3ccccc3)c2)o1` [Example 187, 3-{[5-(1,1′-biphenyl-3-yl)-1,3-oxazol-2-yl]amino}-4-methoxybenzenesulfonamide], with less than 500 nM.
In the case of `CNS(=O)(=O)c1ccc(OC)c(Nc2ncc(-c3cccc(-c4ccc(F)cc4)c3)o2)c1` [Example 189, 3-{[5-(4′-fluoro-1,1′-biphenyl-3-yl)-1,3-oxazol-2-yl]amino}-4-methoxy-N-methylbenzenesulfonamide], the IC50 is less than 500 nM.
Regarding `CCC(CC)S(=O)(=O)c1ccc(OC)c(Nc2ncc(-c3cccc(-c4ccccn4)c3)o2)c1` [Example 192, N-{5-[(1-ethylpropyl)sulfonyl]-2-methoxyphenyl}-5-(3-pyridin-2-ylphenyl)-1,3-oxazol-2-amine], the IC50 is less than 1000 nM.
Consider `COc1ccc(S(=O)(=O)C(C)C)cc1Nc1ncc(-c2cccc(-c3ccccn3)c2)o1` [Example 193, N-[5-(isopropylsulfonyl)-2-methoxyphenyl]-5-(3-pyridin-2-ylphenyl)-1,3-oxazol-2-amine], for which the IC50 was less than 1000 nM.
`COc1ccc(S(=O)(=O)C(C)c2ccncc2)cc1Nc1ncc(-c2cccc(-c3ccccc3)c2)o1` (centres unmarked) [Example 196, 5-(1,1′-biphenyl-3-yl)-N-{2-methoxy-5-[(1-pyridin-4-ylethyl)sulfonyl]phenyl}-1,3-oxazol-2-amine]: the IC50 is less than 500 nM.
As for `COc1cc(Nc2ncc(-c3cccc(-c4ccccc4)c3)o2)cc(OC)c1OC` [Example 199, 5-(1,1′-biphenyl-3-yl)-N-(3,4,5-trimethoxyphenyl)-1,3-oxazol-2-amine], the IC50 is less than 500 nM.
Then `CCS(=O)(=O)c1ccc(OC)c(Nc2ncc(-c3cccc(-c4cccc(F)c4)c3)o2)c1` [Example 207, N-[5-(ethylsulfonyl)-2-methoxyphenyl]-5-(3′-fluoro-1,1′-biphenyl-3-yl)-1,3-oxazol-2-amine], with less than 500 nM; and `COc1ccc(S(N)(=O)=O)cc1Nc1ncc(-c2cccc(-c3cccc(F)c3)c2)o1` [Example 214, 3-{[5-(3′-fluoro-1,1′-biphenyl-3-yl)-1,3-oxazol-2-yl]amino}-4-methoxybenzenesulfonamide], with less than 1000 nM.
In the case of `CCS(=O)(=O)c1ccc(OC)c(Nc2ncc(-c3cccc(-c4ccccc4F)c3)o2)c1` [Example 215, N-[5-(ethylsulfonyl)-2-methoxyphenyl]-5-(2′-fluoro-1,1′-biphenyl-3-yl)-1,3-oxazol-2-amine], the IC50 was less than 500 nM.
Then `CCS(=O)(=O)c1ccc(OC)c(Nc2ncc(-c3cccc(-c4ccccc4Cl)c3)o2)c1` [Example 216, 5-(2′-chloro-1,1′-biphenyl-3-yl)-N-[5-(ethylsulfonyl)-2-methoxyphenyl]-1,3-oxazol-2-amine], with less than 500 nM; and `CCNS(=O)(=O)c1ccc(OC)c(Nc2ncc(-c3cccc(-c4ccccn4)c3)o2)c1` [Example 218, N-ethyl-4-methoxy-3-{[5-(3-pyridin-2-ylphenyl)-1,3-oxazol-2-yl]amino}benzenesulfonamide], with less than 500 nM; and `COc1ccc(S(=O)(=O)NCC2CC2)cc1Nc1ncc(-c2cccc(-c3ccccn3)c2)o1` [Example 221, N-(cyclopropylmethyl)-4-methoxy-3-{[5-(3-pyridin-2-ylphenyl)-1,3-oxazol-2-yl]amino}benzenesulfonamide], with less than 1000 nM.
Turning to `COc1ccc(S(=O)(=O)NC(C)C)cc1Nc1ncc(-c2cccc(-c3cccnc3)c2)o1` [Example 223, N-isopropyl-4-methoxy-3-{[5-(3-pyridin-3-ylphenyl)-1,3-oxazol-2-yl]amino}benzenesulfonamide], the IC50 is less than 500 nM.

These data come from US20070142437A1, “CHEMICAL COMPOUNDS” (priority 2005, published 2007).
